Like-named read-outs stand apart in the source and are kept apart here.
What was measured:
[1] = cited from earlier work
[2] = cited from earlier work; remark: listed apart in the source
[3] = in vivo; cited from earlier work
DTH response = details: mice, 0.781-50 mg/kg (i.p.) or 0.5 mg/kg (per os); cited from earlier work
[4] = tested on: carragheenin-induced swelling; details: mice; cited from earlier work
[5] = molecular target: T1, human cannabis CB1 receptor (Homo sapiens, UniProt P21554); assay: In vitro affinity for cannabinoid CB1 receptors, [3H]CP-55,940 radioligand, CHO cell membrane preparations; format: binding
T1 construct: expressed in transfected cells; host or cells: Chinese hamster ovary (CHO) cells, stably transfected; membrane preparation
T1 sequence (P21554 whole entry): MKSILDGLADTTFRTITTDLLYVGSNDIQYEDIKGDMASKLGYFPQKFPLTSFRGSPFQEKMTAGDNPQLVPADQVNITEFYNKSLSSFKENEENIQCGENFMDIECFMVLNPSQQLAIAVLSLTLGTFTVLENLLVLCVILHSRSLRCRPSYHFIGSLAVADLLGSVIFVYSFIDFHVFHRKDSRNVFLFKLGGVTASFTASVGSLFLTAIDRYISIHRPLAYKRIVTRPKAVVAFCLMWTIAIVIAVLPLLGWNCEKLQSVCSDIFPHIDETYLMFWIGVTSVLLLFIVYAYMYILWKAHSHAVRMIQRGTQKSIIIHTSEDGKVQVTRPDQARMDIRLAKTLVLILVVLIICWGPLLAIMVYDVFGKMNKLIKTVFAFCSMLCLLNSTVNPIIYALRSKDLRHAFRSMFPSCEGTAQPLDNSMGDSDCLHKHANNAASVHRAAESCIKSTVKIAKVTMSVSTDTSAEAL
Protocol: After incubation of a freshly prepared cell membrane preparation with the [3H]-ligand, with or without addition of compounds of the invention, separation of bound and free ligand was performed by filtration over glass fibre filters. Radioactivity on the filter was measured by liquid scintillation counting.

[6] = molecular target: T2, human cannabinoid CB1 receptors (Homo sapiens, UniProt P21554); assay: In vitro CB1 antagonism, functional studies in CHO cells expressing human CB1 receptor; format: cell-based
T2 construct: expressed in transfected cells
T2 sequence (P21554 whole entry): as above
Protocol: The cannabinoid CB1 antagonistic activity of compounds of the formulas (I), (II), III), (IV) or (V) is also described in the WO 03/026647, WO 03/027076, WO 03/026648 or WO 03/078413, and was determined by functional studies using CHO cells in which human cannabinoid CB1 receptors are stably expressed. Adenylyl cyclase was stimulated using forskolin and measured by quantifying the amount of accumulated cyclic AMP. Concomitant activation of CB1 receptors by CB1 receptor agonists (e.g. CP-55,940 or (R)-WIN-55,212-2) can attenuate the forskolin-induced accumulation of cAMP in a concentration-dependent manner. This CB1 receptor-mediated response can be antagonized by CB1 receptor antagonists such as the compounds used in the present invention.
The cannabinoid CB1 receptor antagonistic, agonistic or partial agonistic activity of compounds e.g. formula (V) of the invention can be also determined by functional studies using the human CB1 receptor cloned in Chinese hamster ovary (CHO) cells according to the following protocol. CHO cells were grown in a DMEM culture medium, supplemented with 10% heat-inactivated fetal calf serum. Medium was aspirated and replaced by DMEM, without fetal calf serum, but containing [^3H]-Arachidonic acid and incubated overnight in a cell culture stove (5% CO2/95% air; 37° C.; water-saturated atmosphere). During this period [^3H]-Arachidonic acid was incorporated in membrane phospholipids. On the test day, medium was aspirated and cells were washed three times using 0.5 ml phosphate-buffered saline, containing 0.2% bovine serum albumin. Stimulation of the CB1 receptor by WIN 55,212-2 led to activation of PLA2 followed by release of [^3H]-Arachidonic acid into the medium. This WIN 55,212-2-induced release was concentration-dependently antagonized by CB1 receptor antagonists.

plasma lipases = details: cited from earlier work; for IC50: read-out: IC50 for inhibition of plasma lipases
[7] = molecular target: T3, porcine pancreatic lipase (Sus scrofa, UniProt P00591); details: cited from earlier work; for IC50: read-out: IC50 for inhibition of hydrolysis of triolein by porcine pancreatic lipase; for inhibitory activity, fold stronger than that of THL: porcine pancreatic lipase, relative to THL
T3 sequence (P00591 1-450): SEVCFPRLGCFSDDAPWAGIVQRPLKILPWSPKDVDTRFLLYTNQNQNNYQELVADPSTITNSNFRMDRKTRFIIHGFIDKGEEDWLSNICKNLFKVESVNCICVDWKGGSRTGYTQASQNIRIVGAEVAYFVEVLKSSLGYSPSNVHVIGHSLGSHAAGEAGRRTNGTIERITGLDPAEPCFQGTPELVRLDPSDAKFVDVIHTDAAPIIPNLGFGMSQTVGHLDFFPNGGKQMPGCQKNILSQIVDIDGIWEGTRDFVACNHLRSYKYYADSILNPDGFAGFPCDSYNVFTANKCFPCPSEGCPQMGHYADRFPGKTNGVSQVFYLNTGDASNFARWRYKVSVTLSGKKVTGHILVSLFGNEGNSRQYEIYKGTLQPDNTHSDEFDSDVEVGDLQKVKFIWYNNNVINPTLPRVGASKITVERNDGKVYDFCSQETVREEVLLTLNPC

[8] = tested on: bacterial and fungal lipases; details: cited from earlier work
[9] = patients on atypical antipsychotics; cited from earlier work
[10] = treatment groups 60, 120 and 240 mg
[11] = Human cannabinoid-CB1 receptors, read-out: In vitro affinity pK1 value (converted)

Cl.O=C(NN1CCCCC1)c1nc(-c2ccc(Cl)cc2)n(-c2ccc(Cl)cc2Cl)n1
melting point: 238 to 240 °C (dec.)

Cl.O=C(NN1CCOCC1)c1nc(-c2ccc(Cl)cc2Cl)n(-c2ccc(Cl)cc2)n1
melting point: 224 to 226 °C

CC(C)(C)ONC(=O)c1nc(-c2ccc(Cl)cc2)n(-c2ccc(Cl)cc2Cl)n1
melting point: 150 to 152 °C

Cl.O=C(NN1CCCC1)c1nc(-c2ccc(Cl)cc2Cl)n(-c2ccc(Cl)cc2)n1
melting point: 234 to 236 °C (dec.)

CCCCCCCCCCCCCCCCOc1nc2ccc(C)cc2c(=O)o1 [ATL-962, 2-hexadecyloxy-6-methyl-4H-3,1-benzoxazin-4-one]
subjects with a 3-fold or greater increase in fat excretion compared to placebo ([1]; 50 mg to 300 mg): 55%
subjects with a 7-fold or greater increase in fat excretion compared to placebo ([1]; 50 mg to 300 mg): 27%
safety and tolerability ([1]; phase Ib, healthy male volunteers): safe and well tolerated
weight compared to placebo ([2]; 60, 120 and 240 mg, obese patients): significant reduction in weight
safety and tolerability ([2]; phase IIb, obese patients): safe and generally well tolerated
HDL-cholesterol levels [2, 10]: no difference
LDL-cholesterol [2, 10]: decreased
Total cholesterol [2, 10]: decreased
preclinical toxicity [3]: no toxicity was observed

CC[C@@H](C)[C@@H](O)[C@H](C)C(=O)[C@H](C)/C=C(\C)C[C@H](C)[C@@H]1OC(=O)[C@H]1C [Ebelactone A]
development of DTH response (DTH response): enhances the development of DTH response

CC[C@@H](C)[C@@H](O)[C@H](C)C(=O)[C@H](C)/C=C(\C)C[C@H](C)[C@@H]1OC(=O)[C@H]1CC [Ebelactone B]
development of DTH response (DTH response): enhances the development of DTH response
carragheenin-induced swelling [4]: reduces carragheenin-induced swelling

Cl.O=C(NN1CCCC1)c1nc(-c2ccc(Cl)cc2)n(-c2ccc(Cl)cc2Cl)n1 [Example 2, 5-(4-Chlorophenyl)-1-(2,4-dichlorophenyl)-N-(pyrrolidin-1-yl)-1H-1,2,4-triazole-3-carboxamide hydrochloride]
Ki [5, 11]: 251 nM
melting point: 248 to 255 °C (dec.)
Kb [6]: 63.1 nM

O=C(NC1CCCCC1)c1nc(-c2ccc(Cl)cc2)n(-c2ccc(Cl)cc2Cl)n1 [Example 3, 5-(4-Chlorophenyl)-N-cyclohexyl-1-(2,4-dichlorophenyl)-1H-1,2,4-triazole-3-carboxamide]
Ki [5, 11]: 126 nM
melting point: 186 to 188 °C
Kb [6]: 2 nM

CCCCCNC(=O)c1nc(-c2ccc(Cl)cc2)n(-c2ccc(Cl)cc2Cl)n1 [Example 5, 5-(4-Chlorophenyl)-1-(2,4-dichlorophenyl)-N-(n-pentyl)-1H-1,2,4-triazole-3-carboxamide]
Ki [5]: 126 nM

O=C(NN1CCOCC1)c1nc(-c2ccc(Cl)cc2)n(-c2ccc(Cl)cc2Cl)n1 [Example 6, 5-(4-Chlorophenyl)-1-(2,4-dichlorophenyl)-N-(morpholin-4-yl)-1H-1,2,4-triazole-3-carboxamide]
melting point: 184 to 186 °C

O=C(NC1CCCCC1)c1nc(-c2ccc(Cl)cc2Cl)n(-c2ccc(Cl)cc2)n1 [Example 9, 1-(4-Chlorophenyl)-N-cyclohexyl-5-(2,4-dichlorophenyl)-1H-1,2,4-triazole-3-carboxamide]
Ki [5, 11]: 39.8 nM
Kb [6]: 6.31 nM

CCCCCNC(=O)c1nc(-c2ccc(Cl)cc2Cl)n(-c2ccc(Cl)cc2)n1 [Example 11, 1-(4-Chlorophenyl)-5-(2,4-dichlorophenyl)-N-(n-pentyl)-1H-1,2,4-triazole-3-carboxamide]
Ki [5]: 501 nM

O=C(NN1CCCCC1)c1nc(-c2ccccn2)n(-c2ccc(Cl)cc2Cl)n1 [Example 13, 1-(2,4-Dichlorophenyl)-5-(pyridin-2-yl)-N-(piperidin-1-yl)-1H-1,2,4-triazole-3-carboxamide]
melting point: 191 to 193 °C

O=C(NN1CCCCC1)c1nc(-c2ccc(Cl)cc2Cl)n(-c2ccc(C(F)(F)F)cc2)n1 [Example 14, 5-(2,4-Dichlorophenyl)-N-(piperidin-1-yl)-1-(4-(trifluoromethyl)phenyl)-1H-1,2,4-triazole-3-carboxamide]
melting point: 159 to 161 °C

O=C(NN1CCCCC1)c1nc(-c2cccnc2)n(-c2ccc(Cl)cc2Cl)n1 [Example 16, 1-(2,4-Dichlorophenyl)-N-(piperidin-1-yl)-5-(pyridin-3-yl)-1H-1,2,4-triazole-3-carboxamide]
melting point: 219 °C

CCCCCCC[C@@H](C[C@@H]1OC(=O)[C@H]1CCCCCCCC(C)C)OC(=O)[C@H](C)NC=O [Panclicin A]
IC50 (plasma lipases): 1000 nM
potency on plasma lipases compared with THL (plasma lipases; relative to THL): same potency as THL
irreversibility of pancreatic lipase inhibition [7]: irreversibly inhibit pancreatic lipase
IC50 [7]: 2900 nM
inhibition of bacterial and fungal lipases [8]: profiles similar to those for porcine pancreatic lipase

CCCCCCC[C@@H](C[C@@H]1OC(=O)[C@H]1CCCCCCCC(C)C)OC(=O)CNC=O [Panclicin C]
IC50 (plasma lipases): 290 nM
irreversibility of pancreatic lipase inhibition [7]: irreversibly inhibit pancreatic lipase
inhibitory activity, fold stronger than that of THL [7]: 2 fold
IC50 [7]: 620 nM
inhibition of bacterial and fungal lipases [8]: profiles similar to those for porcine pancreatic lipase

CCCCCCCCCC[C@@H]1C(=O)O[C@H]1C[C@H](CCCCCCC)OC(=O)CNC=O [Panclicin D]
IC50 (plasma lipases): 250 nM
irreversibility of pancreatic lipase inhibition [7]: irreversibly inhibit pancreatic lipase
inhibitory activity, fold stronger than that of THL [7]: 2 fold
IC50 [7]: 660 nM
inhibition of bacterial and fungal lipases [8]: profiles similar to those for porcine pancreatic lipase

CCCCCCCCCCCC[C@@H]1C(=O)O[C@H]1C[C@H](CCCCCCC)OC(=O)CNC=O [Panclicin E]
IC50 (plasma lipases): 150 nM
irreversibility of pancreatic lipase inhibition [7]: irreversibly inhibit pancreatic lipase
inhibitory activity, fold stronger than that of THL [7]: 2 fold
IC50 [7]: 890 nM
inhibition of bacterial and fungal lipases [8]: profiles similar to those for porcine pancreatic lipase

Cc1nc2n(c(=O)c1CCN1CCC(c3noc4cc(F)ccc34)CC1)CCCC2 [Risperidone]
weight change with long-term treatment [9]: modest weight changes that are not dose related

Cc1cc2c(s1)Nc1ccccc1N=C2N1CCN(C)CC1 [olanzapine]
weight change with long-term treatment [9]: largest weight gains

OCCOCCN1CCN(C2=Nc3ccccc3Sc3ccccc32)CC1 [quetiapine]
weight change with long-term treatment [9]: smallest

CCCCCCCCCCC[C@@H](C[C@@H]1OC(=O)[C@H]1CCCCCC)OC(=O)[C@H](CC(C)C)NC=O [tetrahydrolipstatin, (2S,3S,5S)-5-((S)-2-4-methylvaleryloxy)-2-heyl-3-hydroxy-hexadecanoic acid lactone]
fat excreted, average ([1]; 120 mg tid, 5 days, placebo 1.4 g/day): 5.6 (+1-3.8) g/day

O=C1Cc2cc(CCN3CCN(c4nsc5ccccc45)CC3)c(Cl)cc2N1 [ziprasidone]
weight change with long-term treatment [9]: smallest
